The conditions of series [1]: cited from earlier work.
For series [2] the following is noted: experimental; cited from earlier work.
For series [3] the following is noted: in vivo; cited from earlier work.
Series [4] can be described thus: In vitro skin permeation assessment of dutasteride (Franz cell). Conditions: 1-24 hours, human epidermis. In kind it is in vitro ADME. Here is the method:
To investigate the impact of the siliconic components in dutasteride-loaded formulations, in vitro tests were conducted to measure the permeation through and retention into skin epidermis of a 1% dutasteride-loaded silicone gel formulation made according to the process of Example 2. As a comparison, a gel spray of dutasteride without silicone (PEG-8 Dimethicone or Poly(methylsilsesquioxane)) was also prepared. An original Franz-type diffusion cell system was modified to accommodate widened vertical columns and removal of the bowl shape. The diffusion area was 0.636 cm^2 with a receiver capacity of approximately 3.0 mL. The receiver volume for each cell was individually calibrated.
Human epidermis samples were prepared according to standard protocols. The samples were obtained from abdominal skin of two 30-50 year old Eurasiatic donors. The samples were used as a membrane between the two chambers in the Franz cells. […]
Before being mounted on the Franz cell, each epidermal sheet was visually inspected to avoid any possible defects. Additionally, the electrical resistance of isolated epidermis was measured to ensure the integrity of the barrier membrane. […]
The prepared Franz cells were stirred continuously using a magnetic stir bar at a temperature of 37° C. […] After standing for 24 hours, the supernatant was centrifuged at 3000 rpm for 10 minutes at 23° C. and analyzed by HPLC. […]

Series [5] deals with serum DHT. The settings on record: cited from earlier work; for reduction of serum DHT levels: oral administration / oral formulations.
For series [6] the following is noted: after oral administration; cited from earlier work.

Each structure is given as a SMILES string. Several values for one entry are separate records, joined by “and”; a condition that tells them apart may be missing. Equal values may be shown once. Read-outs that look alike come from different tables or passages of the source.

Consider `C[C@]12C=CC(=O)N[C@@H]1CC[C@@H]1[C@@H]2CC[C@]2(C)[C@@H](C(=O)Nc3cc(C(F)(F)F)ccc3C(F)(F)F)CC[C@@H]12` [dutasteride, Dutasteride], for which, in series [1], the plasma protein binding was 99%. Besides, the logP in series [2] is on record as 6.8. In addition, the volume of distribution in series [3] is given as 300 to 500 L. In series [4], the “dutasteride in the receiver compartment” value is recorded as “never detected”. Moreover, the “suppression of DHT production” value in series [5] (after sustained oral administration) was “up to 99%”.

Consider `CC(C)(C)NC(=O)[C@H]1CC[C@H]2[C@@H]3CC[C@H]4NC(=O)C=C[C@]4(C)[C@H]3CC[C@]12C` [finasteride, Finasteride], for which the logP in series [2] is 3.03. Further, in series [3], the volume of distribution is on record as 44 to 96 L. In addition, the “systemic clearance (CL)” value in series [6] is 165 mL/min. Besides, the “reduction of serum DHT levels” value was 60 to 70% and 60-70% in series [5]; 65-70% in series [5] (listed as Finasteride).

One may read the logP as the decadic logarithm of the partition coefficient of the neutral form, usually between octanol and water.

These data come from US20230181430A1, “TOPICAL FORMULATIONS COMPRISING DUTASTERIDE FOR TREATING DERMATOLOGICAL DISORDERS INCLUDING MALE PATTERN BALDNESS” (XYON Health Inc., priority 2020, published 2023).
